pIC50: −log10 of the molar value.
Tests used:
Assay type in all cases: cell-based
EGFR V3 [1] = biological target: T1, EGFR V3 (Homo sapiens, UniProt P00533, DELINS30-297G); experiment: BaF3 cell proliferation assay, EGFR V3 (Table A); conditions: potency code, 3 days, CellTiterGlo, read-out: EGFR V3 (Activity for Inhibiting EGFR)
T1 construct: expressed in transfected cells; host or cells: BaF3 (murine pro-B), retroviral pMXs-IRES-Blasticidin
Summary of the method: (§1)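 BaF3 cells were infected twice with retrovirus carrying the mutant (pMXs-IRES-Blasticidin, 8 μg/ml polybrene, spinoculation), then selected in 10 μg/ml blasticidin for one week. Resistant pools were then grown without IL-3 to select for IL-3-independent growth. EC50 values were derived from proliferation.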

HER2 YVMA [2] = biological target: T2, HER2 YVMA (Homo sapiens, UniProt P04626, INS775YVMA); experiment: Activity for inhibiting HER2 (Table B), HER2 YVMA; conditions: read-out: HER2 YVMA, potency code (IC50)
T2 construct: expressed in transfected cells; host or cells: BaF3 (murine pro-B)
T2 sequence (P04626 with tags, fused parts or gaps INS775YVMA): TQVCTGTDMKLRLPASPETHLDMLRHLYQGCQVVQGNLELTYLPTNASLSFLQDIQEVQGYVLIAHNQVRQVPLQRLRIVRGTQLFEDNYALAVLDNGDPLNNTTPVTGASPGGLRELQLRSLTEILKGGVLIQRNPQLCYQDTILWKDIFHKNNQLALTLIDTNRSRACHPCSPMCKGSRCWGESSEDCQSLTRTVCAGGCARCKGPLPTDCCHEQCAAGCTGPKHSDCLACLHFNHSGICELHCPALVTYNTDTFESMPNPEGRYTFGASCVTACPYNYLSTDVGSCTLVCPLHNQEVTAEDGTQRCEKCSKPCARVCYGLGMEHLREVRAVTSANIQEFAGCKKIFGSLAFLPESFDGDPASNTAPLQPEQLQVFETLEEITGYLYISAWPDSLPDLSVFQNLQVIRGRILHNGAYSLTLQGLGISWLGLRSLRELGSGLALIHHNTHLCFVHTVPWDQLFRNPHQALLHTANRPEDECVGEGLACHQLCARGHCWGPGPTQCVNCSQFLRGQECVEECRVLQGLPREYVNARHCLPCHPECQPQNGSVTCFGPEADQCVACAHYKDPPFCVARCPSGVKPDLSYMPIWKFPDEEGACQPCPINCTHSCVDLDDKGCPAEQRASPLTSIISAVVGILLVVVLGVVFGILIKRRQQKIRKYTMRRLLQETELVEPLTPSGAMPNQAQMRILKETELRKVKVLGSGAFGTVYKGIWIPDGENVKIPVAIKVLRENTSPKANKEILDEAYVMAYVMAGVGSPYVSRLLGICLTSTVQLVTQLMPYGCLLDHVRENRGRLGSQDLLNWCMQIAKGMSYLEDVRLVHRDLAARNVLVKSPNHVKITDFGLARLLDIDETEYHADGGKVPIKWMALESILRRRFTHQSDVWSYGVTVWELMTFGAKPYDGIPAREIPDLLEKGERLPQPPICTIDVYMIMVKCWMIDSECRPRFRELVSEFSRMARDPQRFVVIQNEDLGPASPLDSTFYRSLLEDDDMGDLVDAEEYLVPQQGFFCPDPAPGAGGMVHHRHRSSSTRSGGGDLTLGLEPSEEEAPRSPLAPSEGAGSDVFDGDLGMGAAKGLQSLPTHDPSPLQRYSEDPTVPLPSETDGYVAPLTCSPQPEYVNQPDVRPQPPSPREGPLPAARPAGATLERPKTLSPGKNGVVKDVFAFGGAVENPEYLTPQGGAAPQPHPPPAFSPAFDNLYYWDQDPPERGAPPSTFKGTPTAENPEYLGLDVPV
Experimental: (§2) EC50 values were determined with the same application.

HER2 S310F [3] = biological target: T3, HER2 S310F (Homo sapiens, UniProt P04626, S310F); experiment: BaF3 cell proliferation assay, HER2 S310F (Table B); conditions: potency code, 3 days, CellTiterGlo, read-out: HER2 S310F (Activity for Inhibiting HER2)
T3 construct: expressed in transfected cells; host or cells: BaF3 (murine pro-B)

EGFR NPH [4] = biological target: T4, EGFR NPH (Homo sapiens, UniProt P00533, DUP771-773); experiment: Activity for inhibiting EGFR (Table A), EGFR NPH; conditions: read-out: EGFR NPH, potency code (IC50)
T4 construct: expressed in transfected cells; host or cells: BaF3 (murine pro-B), retroviral pMXs-IRES-Blasticidin

HER2 WT [5] = biological target: T5, HER2 WT (Homo sapiens, UniProt P04626); experiment: BaF3 cell proliferation assay, HER2 WT (Table B); conditions: potency code, 3 days, CellTiterGlo, read-out: HER2 WT (Activity for Inhibiting HER2)
EGFR WT [6] = biological target: T6, EGFR WT (Homo sapiens, UniProt P00533); experiment: BaF3 cell proliferation assay, EGFR WT (Table A); conditions: potency code, 3 days, CellTiterGlo, read-out: EGFR WT (Activity for Inhibiting EGFR)
T6 sequence (P00533 25-1210 N540K): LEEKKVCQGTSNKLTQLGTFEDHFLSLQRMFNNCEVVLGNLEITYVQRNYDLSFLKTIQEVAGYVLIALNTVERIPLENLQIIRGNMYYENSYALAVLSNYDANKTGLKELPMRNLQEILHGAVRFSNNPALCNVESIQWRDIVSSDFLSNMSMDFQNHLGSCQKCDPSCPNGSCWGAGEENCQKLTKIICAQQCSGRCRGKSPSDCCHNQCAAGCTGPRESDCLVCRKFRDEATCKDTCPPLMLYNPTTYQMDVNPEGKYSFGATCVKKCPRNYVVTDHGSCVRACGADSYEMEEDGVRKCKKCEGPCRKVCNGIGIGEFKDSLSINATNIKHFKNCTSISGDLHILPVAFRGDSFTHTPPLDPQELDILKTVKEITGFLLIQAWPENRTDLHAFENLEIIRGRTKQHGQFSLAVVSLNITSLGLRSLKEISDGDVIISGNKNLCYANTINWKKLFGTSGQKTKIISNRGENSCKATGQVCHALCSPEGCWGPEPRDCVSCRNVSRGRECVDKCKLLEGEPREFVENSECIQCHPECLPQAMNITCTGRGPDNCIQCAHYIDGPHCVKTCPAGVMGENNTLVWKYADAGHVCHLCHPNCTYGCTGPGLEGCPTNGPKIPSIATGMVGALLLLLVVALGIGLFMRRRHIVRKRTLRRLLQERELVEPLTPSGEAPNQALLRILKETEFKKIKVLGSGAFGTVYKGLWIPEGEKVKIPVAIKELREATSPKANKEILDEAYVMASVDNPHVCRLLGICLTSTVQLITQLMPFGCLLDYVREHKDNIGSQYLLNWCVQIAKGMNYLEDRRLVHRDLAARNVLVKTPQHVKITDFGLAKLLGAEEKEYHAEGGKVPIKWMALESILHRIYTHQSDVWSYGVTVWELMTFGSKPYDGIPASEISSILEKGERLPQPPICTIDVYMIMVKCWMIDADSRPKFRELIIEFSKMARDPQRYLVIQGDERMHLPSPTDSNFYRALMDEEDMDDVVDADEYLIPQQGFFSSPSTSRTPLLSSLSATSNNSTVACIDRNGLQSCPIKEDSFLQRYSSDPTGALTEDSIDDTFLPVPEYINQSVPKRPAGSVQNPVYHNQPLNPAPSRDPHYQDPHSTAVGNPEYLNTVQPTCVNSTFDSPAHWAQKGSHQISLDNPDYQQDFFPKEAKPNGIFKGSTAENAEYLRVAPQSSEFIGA
Summary of the method: as §1

HER2 YVMA [7] = biological target: T2, HER2 YVMA; experiment: BaF3 cell proliferation assay, HER2 YVMA (Table B); conditions: potency code, 3 days, CellTiterGlo, read-out: HER2 YVMA (Activity for Inhibiting HER2)
HER2 WT [8] = biological target: T5, HER2 WT; experiment: Activity for inhibiting HER2 (Table B), HER2 WT
EGFR NPH [9] = biological target: T4, EGFR NPH; experiment: BaF3 cell proliferation assay, EGFR NPH (Table A); conditions: potency code, 3 days, CellTiterGlo, read-out: EGFR NPH (Activity for Inhibiting EGFR)
Experimental: (§3) Retroviral Production: EGFR mutants were subcloned into pMXs-IRES-Blasticidin (RTV-016, Cell Biolabs, San Diego, Calif.). Retroviral expression vector retrovirus was produced by transient transfection of HEK 293T cells with the retroviral EGFR mutant expression vector pMXs-IRES-Blasticidin (RTV-016, Cell Biolabs), pCMV-Gag-Pol vector and pCMV-VSV-G-Envelope vector. Briefly, HEK 293T/17 cells were plated in 100 mm collagen coated plate (354450, Corning Life Sciences, Tewksbury, Mass.) (4×10^5 per plate) and incubated overnight. The next day, retroviral plasmids (3 μg of EGFR mutant, 1.0 μg of pCMV-Gag-Pol and 0.5 μg pCMV-VSV-G) were mixed in 500 μl of Optimem (31985, Life Technologies). The mixture was incubated at room temperature for 5 min and then added to Optimem containing transfection reagent Lipofectamine (11668, Invitrogen) and incubated for 20 minutes. Mixture was then added dropwise to HEK 293T cells. The next day the medium was replaced with fresh culture medium and retrovirus was harvested @ 24 and 48 hrs.
(§4) Generation of EGFR mutant stable cell lines: BaF3 cells (1.5E5 cells) were infected with 1 ml of viral supernatant supplemented with 8 μg/ml polybrene by centrifuging for 30 min at 1000 rpm. Cells were placed in a 37° C. incubator overnight. Cells were then spun for 5 minutes to pellet the cells. Supernatant was removed and cells re-infected a fresh 1 ml of viral supernatant supplemented with 8 μg/ml polybrene by centrifuging for 30 min at 1000 rpm. Cells were placed in 37° C. incubator overnight. […] After 48 hours cells were selected for retroviral infection in 10 μg/ml Blasticidin for one week. Blasticidin resistant populations were washed twice in phosphate buffered saline before plating in media lacking IL-3 to select for IL-3 independent growth.
as §2

HER2 S310F [10] = biological target: T3, HER2 S310F; experiment: Activity for inhibiting HER2 (Table B), HER2 S310F; conditions: read-out: HER2 S310F, potency code (IC50)
Experimental: as §2

EGFR WT [11] = biological target: T6, EGFR WT; experiment: Activity for inhibiting EGFR (Table A), EGFR WT; conditions: read-out: EGFR WT, potency code (IC50)
EGFR SVD [12] = biological target: T7, EGFR SVD (Homo sapiens, UniProt P00533, DUP768-770); experiment: BaF3 cell proliferation assay, EGFR SVD (Table A); conditions: potency code, 3 days, CellTiterGlo, read-out: EGFR SVD (Activity for Inhibiting EGFR)
T7 construct: expressed in transfected cells; host or cells: BaF3 (murine pro-B), retroviral pMXs-IRES-Blasticidin
T7 sequence (P00533 with tags, fused parts or gaps DUP768-770): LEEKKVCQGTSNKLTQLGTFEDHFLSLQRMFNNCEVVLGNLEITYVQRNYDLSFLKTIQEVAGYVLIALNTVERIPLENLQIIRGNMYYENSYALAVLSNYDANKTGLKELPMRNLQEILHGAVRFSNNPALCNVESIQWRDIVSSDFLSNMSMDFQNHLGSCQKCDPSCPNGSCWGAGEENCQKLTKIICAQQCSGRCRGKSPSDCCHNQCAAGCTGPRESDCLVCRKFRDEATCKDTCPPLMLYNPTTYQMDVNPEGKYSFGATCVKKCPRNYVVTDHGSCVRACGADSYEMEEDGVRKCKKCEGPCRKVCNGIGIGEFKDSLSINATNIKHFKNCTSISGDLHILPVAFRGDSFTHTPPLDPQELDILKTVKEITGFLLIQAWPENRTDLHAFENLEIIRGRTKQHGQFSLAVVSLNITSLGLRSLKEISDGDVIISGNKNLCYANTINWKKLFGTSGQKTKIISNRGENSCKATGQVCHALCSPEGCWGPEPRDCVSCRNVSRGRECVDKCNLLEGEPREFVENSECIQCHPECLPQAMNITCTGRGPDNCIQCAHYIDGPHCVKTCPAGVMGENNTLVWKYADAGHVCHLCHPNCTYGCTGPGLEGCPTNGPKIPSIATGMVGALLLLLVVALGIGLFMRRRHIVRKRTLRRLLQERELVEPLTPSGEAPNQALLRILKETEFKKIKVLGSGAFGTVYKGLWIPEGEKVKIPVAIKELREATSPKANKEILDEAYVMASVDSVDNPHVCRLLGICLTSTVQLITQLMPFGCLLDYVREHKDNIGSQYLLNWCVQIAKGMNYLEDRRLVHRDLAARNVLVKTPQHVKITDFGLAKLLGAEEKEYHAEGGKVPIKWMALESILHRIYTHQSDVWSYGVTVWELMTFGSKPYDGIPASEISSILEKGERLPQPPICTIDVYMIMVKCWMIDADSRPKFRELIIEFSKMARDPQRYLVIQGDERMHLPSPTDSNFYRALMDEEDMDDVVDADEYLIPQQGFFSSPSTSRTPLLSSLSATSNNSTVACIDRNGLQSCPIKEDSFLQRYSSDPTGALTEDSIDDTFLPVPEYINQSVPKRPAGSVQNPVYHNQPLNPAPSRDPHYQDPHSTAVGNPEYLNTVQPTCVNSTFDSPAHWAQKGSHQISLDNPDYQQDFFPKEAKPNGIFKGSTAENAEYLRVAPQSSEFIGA
Experimental: as §3, §4, §2

EGFR SVD [13] = biological target: T7, EGFR SVD; experiment: Activity for inhibiting EGFR (Table A), EGFR SVD; conditions: read-out: EGFR SVD, potency code (IC50)
EGFR V3 [14] = biological target: T1, EGFR V3; experiment: Activity for inhibiting EGFR (Table A), EGFR V3 (EGFR-Viii); conditions: read-out: EGFR V3, potency code (IC50)
[15] = Table B, read-out: HER2 WT, potency code (IC50)
[16] = text lists of compounds, read-out: IC50 value for inhibiting wild-type HER2

T1 sequence (P00533 with tags, fused parts or gaps DELINS30-297G): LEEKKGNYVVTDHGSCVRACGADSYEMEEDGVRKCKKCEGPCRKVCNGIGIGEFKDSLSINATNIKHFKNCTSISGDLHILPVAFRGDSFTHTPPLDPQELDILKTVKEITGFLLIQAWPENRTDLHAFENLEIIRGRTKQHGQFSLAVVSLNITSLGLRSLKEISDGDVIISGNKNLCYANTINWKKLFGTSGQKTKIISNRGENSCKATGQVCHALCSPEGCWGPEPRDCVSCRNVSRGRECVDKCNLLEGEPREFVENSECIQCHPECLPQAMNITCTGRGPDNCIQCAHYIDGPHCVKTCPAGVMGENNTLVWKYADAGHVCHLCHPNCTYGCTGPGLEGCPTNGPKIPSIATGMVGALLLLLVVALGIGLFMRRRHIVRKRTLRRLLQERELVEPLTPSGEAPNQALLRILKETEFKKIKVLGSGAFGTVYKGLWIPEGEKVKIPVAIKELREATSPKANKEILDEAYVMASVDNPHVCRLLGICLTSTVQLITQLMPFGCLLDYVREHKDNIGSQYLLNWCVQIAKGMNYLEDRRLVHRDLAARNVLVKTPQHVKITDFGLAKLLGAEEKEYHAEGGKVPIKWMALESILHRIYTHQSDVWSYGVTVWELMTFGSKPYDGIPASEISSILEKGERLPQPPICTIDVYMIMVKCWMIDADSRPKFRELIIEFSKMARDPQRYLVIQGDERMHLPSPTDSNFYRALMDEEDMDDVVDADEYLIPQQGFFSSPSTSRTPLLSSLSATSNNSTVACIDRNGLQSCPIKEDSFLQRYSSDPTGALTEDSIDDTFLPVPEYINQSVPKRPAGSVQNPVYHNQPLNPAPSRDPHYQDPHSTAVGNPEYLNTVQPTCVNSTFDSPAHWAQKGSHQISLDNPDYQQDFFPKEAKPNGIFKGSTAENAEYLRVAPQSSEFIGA

Row | Structure (SMILES) | pIC50 (EGFR V3 [1]) | pIC50 (HER2 YVMA [2]) | pIC50 (HER2 S310F [3]) | pIC50 (EGFR NPH [4]) | pIC50 (HER2 WT [5]) | pIC50 (EGFR WT [6]) | pIC50 (HER2 YVMA [7]) | pIC50 (HER2 WT [8]; [15]) | pIC50 (HER2 WT [8]; [16]) | pIC50 (EGFR NPH [9]) | pIC50 (HER2 S310F [10]) | pIC50 (EGFR WT [11]) | pIC50 (EGFR SVD [12]) | pIC50 (EGFR SVD [13]) | pIC50 (EGFR V3 [14])
1 | C=CC(=O)Nc1cc2c(Nc3ccc(Oc4ccc(C)nc4)c(C)c3)ncnc2cc1OC1CCN(C)C1 (centres unmarked) [compound 68] | 6.70 to 7.00 | 6.30 to 6.52 | 7.30 to 7.52 | 6.00 to 6.30 | 7.70 to 8.00 | 6.00 to 6.30 | 6.30 to 6.52 | 7.70 to 8.00 | ≥ 7.70 | 6.00 to 6.30 | 7.30 to 7.52 | 6.00 to 6.30 | 6.00 to 6.30 | 6.00 to 6.30 | 6.70 to 7.00
2 | C=CC(=O)Nc1cc2c(Nc3ccc(OCc4ccccn4)c(Cl)c3)ncnc2cc1OCCN1CC2CC1CO2 (centres unmarked) [compound 39] | 7.52 to 7.70 | 7.00 to 7.30 | 7.70 to 8.00 | 7.00 to 7.30 | 8.00 to 8.30 | 6.00 to 6.30 | 7.00 to 7.30 | 8.00 to 8.30 | ≥ 8.00 | 7.00 to 7.30 | 7.70 to 8.00 | 6.00 to 6.30 | 7.30 to 7.52 | 7.30 to 7.52 | 7.52 to 7.70
3 | C=CC(=O)Nc1cc2c(Nc3ccc(Oc4ccccc4)cc3)ncnc2cc1OCCN1CCOCC1 [compound 63] | 7.00 to 7.30 | 6.30 to 6.52 | 7.00 to 7.30 | 6.30 to 6.52 | 7.30 to 7.52 | < 6.00 | 6.30 to 6.52 | 7.30 to 7.52 | ≥ 7.30 | 6.30 to 6.52 | 7.00 to 7.30 | < 6.00 | 6.30 to 6.52 | 6.30 to 6.52 | 7.00 to 7.30
4 | C=CC(=O)Nc1cc2c(Nc3ccc(OCc4ccccn4)c(Cl)c3)ncnc2cc1OCCCN1CC2CC1CO2 (centres unmarked) [compound 20] | 7.52 to 7.70 | 7.70 to 8.00 | 7.70 to 8.00 | 7.70 to 8.00 | > 8.30 | 6.52 to 6.70 | 7.70 to 8.00 | > 8.30 | ≥ 8.00 | 7.70 to 8.00 | 7.70 to 8.00 | 6.52 to 6.70 | 7.70 to 8.00 | 7.70 to 8.00 | 7.52 to 7.70
5 | C=CC(=O)Nc1cc2c(Nc3cc(Cl)c(OCc4ccccn4)cc3F)ncnc2cc1OC1CCN(C)C1 (centres unmarked) [compound 60] | 7.70 to 8.00 | 6.30 to 6.52 | 7.52 to 7.70 | 6.52 to 6.70 | 8.00 to 8.30 | 6.52 to 6.70 | 6.30 to 6.52 | 8.00 to 8.30 | ≥ 8.00 | 6.52 to 6.70 | 7.52 to 7.70 | 6.52 to 6.70 | 6.52 to 6.70 | 6.52 to 6.70 | 7.70 to 8.00
6 | C=CC(=O)Nc1cc2c(Nc3ccc(OCc4ccccn4)c(Cl)c3)ncnc2cc1OCCN1C2CCC1COC2 [compound 31] | 7.30 to 7.52 | 6.70 to 7.00 | 7.30 to 7.52 | 7.00 to 7.30 | 8.00 to 8.30 | 6.00 to 6.30 | 6.70 to 7.00 | 8.00 to 8.30 | ≥ 8.00 | 7.00 to 7.30 | 7.30 to 7.52 | 6.00 to 6.30 | 7.00 to 7.30 | 7.00 to 7.30 | 7.30 to 7.52

More lines, now with the values ahead:

Row | pIC50 (EGFR V3 [1]) | pIC50 (HER2 YVMA [2]) | pIC50 (HER2 S310F [3]) | pIC50 (EGFR NPH [4]) | pIC50 (HER2 WT [5]) | pIC50 (EGFR WT [6]) | pIC50 (HER2 YVMA [7]) | pIC50 (HER2 WT [8]; [15]) | pIC50 (HER2 WT [8]; [16]) | pIC50 (EGFR NPH [9]) | pIC50 (HER2 S310F [10]) | pIC50 (EGFR WT [11]) | pIC50 (EGFR SVD [12]) | pIC50 (EGFR SVD [13]) | pIC50 (EGFR V3 [14]) | Structure (SMILES)
7 | 7.70 to 8.00 | 7.30 to 7.52 | 8.00 to 8.30 | 7.30 to 7.52 | > 8.30 | 6.30 to 6.52 | 7.30 to 7.52 | > 8.30 | ≥ 8.30 | 7.30 to 7.52 | 8.00 to 8.30 | 6.30 to 6.52 | 7.52 to 7.70 | 7.52 to 7.70 | 7.70 to 8.00 | C=CC(=O)Nc1cc2c(Nc3ccc(OCc4ccccn4)c(Cl)c3)ncnc2cc1OC1CC(N(C)C)C1 (centres unmarked) [compound 62]
8 | 7.70 to 8.00 | 6.70 to 7.00 | 7.52 to 7.70 | 6.70 to 7.00 | 8.00 to 8.30 | < 6.00 | 6.70 to 7.00 | 8.00 to 8.30 | ≥ 8.00 | 6.70 to 7.00 | 7.52 to 7.70 | < 6.00 | 7.00 to 7.30 | 7.00 to 7.30 | 7.70 to 8.00 | C=CC(=O)Nc1cc2c(Nc3ccc(OCc4ccccn4)c(Cl)c3)ncnc2cc1OCC1(N(C)C)CC1 [compound 54]
9 | 7.30 to 7.52 | 6.00 to 6.30 | 7.00 to 7.30 | 6.30 to 6.52 | 7.70 to 8.00 | < 6.00 | 6.00 to 6.30 | 7.70 to 8.00 | ≥ 7.70 | 6.30 to 6.52 | 7.00 to 7.30 | < 6.00 | 6.52 to 6.70 | 6.52 to 6.70 | 7.30 to 7.52 | C=CC(=O)Nc1cc2c(Nc3ccc(OCc4ccccn4)c(Cl)c3)ncnc2cc1N1CCC(N(C)C)CC1 [compound 78]
10 | 7.52 to 7.70 | 7.00 to 7.30 | 7.70 to 8.00 | 6.70 to 7.00 | 7.00 to 7.30 | 6.00 to 6.30 | 7.00 to 7.30 | 7.00 to 7.30 | – | 6.70 to 7.00 | 7.70 to 8.00 | 6.00 to 6.30 | 7.00 to 7.30 | 7.00 to 7.30 | 7.52 to 7.70 | C=CC(=O)Nc1cc2c(Nc3ccc(OCc4ccccn4)c(Cl)c3)ncnc2cc1C#CC(C)(C)N(C)C [compound 66]
11 | 7.52 to 7.70 | 6.70 to 7.00 | 7.70 to 8.00 | 7.00 to 7.30 | 8.00 to 8.30 | 6.30 to 6.52 | 6.70 to 7.00 | 8.00 to 8.30 | ≥ 8.00 | 7.00 to 7.30 | 7.70 to 8.00 | 6.30 to 6.52 | 7.00 to 7.30 | 7.00 to 7.30 | 7.52 to 7.70 | C=CC(=O)Nc1cc2c(Nc3ccc(OCc4ccccn4)c(Cl)c3)ncnc2cc1OCCN1CCC1 [compound 33]
12 | 7.52 to 7.70 | 6.70 to 7.00 | 7.52 to 7.70 | 6.70 to 7.00 | 8.00 to 8.30 | 6.52 to 6.70 | 6.70 to 7.00 | 8.00 to 8.30 | ≥ 8.00 | 6.70 to 7.00 | 7.52 to 7.70 | 6.52 to 6.70 | 6.70 to 7.00 | 6.70 to 7.00 | 7.52 to 7.70 | C=CC(=O)Nc1cc2c(Nc3ccc(OCc4ccccn4)c(Cl)c3)ncnc2cc1OCCN(C)C [compound 19]
